# Results taken from ChEMBL document CHEMBL5331051, “Cationic, amphipathic small molecules based on a triazine-piperazine-triazine scaffold as a new class of antimicrobial agents” (Eur J Med Chem, 2022).
# Calls of active or inactive are those of the source. No cut-off for these calls is given here.
# What was measured:
# Escherichia coli [1] = assay: Antibacterial activity against Escherichia coli KCTC 1682 strain assessed as bacterial growth inhibition measured at 18 to 24 hrs by microdilution assay; assay type: functional; conditions: time 18-24 hrs
# Pseudomonas aeruginosa [2] = assay: Antibacterial activity against Pseudomonas aeruginosa KCTC 1637 strain assessed as bacterial growth inhibition measured at 18 to 24 hrs by microdilution assay; assay type: functional; conditions: time 18-24 hrs
# [3] = system: Staphylococcus epidermidis; assay: Antibacterial activity against Staphylococcus epidermidis KCTC 1917 strain assessed as bacterial growth inhibition measured at 18 to 24 hrs by microdilution assay; assay type: functional; conditions: time 18-24 hrs
# Staphylococcus aureus [4] = assay: Antibacterial activity against Staphylococcus aureus KCTC 1621 strain assessed as bacterial growth inhibition measured at 18 to 24 hrs by microdilution assay; assay type: functional; conditions: time 18-24 hrs
# Erythrocyte = assay: Hemolytic activity in sheep RBC assessed as minimal hemolytic concentration causing 10% hemolysis incubated for 1 hr by ELISA; assay type: toxicity, cell-based, Ovis aries
# Escherichia coli [5] = assay: Antibacterial activity against Escherichia coli KCTC 1682 strain assessed as bacterial growth inhibition measured at 18 to 24 hrs in presence of 4.5 mM KCl by microdilution assay; assay type: functional; conditions: time 18-24 hrs
# Escherichia coli [6] = assay: Antibacterial activity against Escherichia coli KCTC 1682 strain assessed as bacterial growth inhibition measured at 18 to 24 hrs in presence of 6 uM NH4Cl by microdilution assay; assay type: functional; conditions: time 18-24 hrs
# Escherichia coli [7] = assay: Antibacterial activity against Escherichia coli KCTC 1682 strain assessed as bacterial growth inhibition measured at 18 to 24 hrs in presence of 4 uM FeCl3 by microdilution assay; assay type: functional; conditions: time 18-24 hrs
# Staphylococcus aureus [8] = assay: Antibacterial activity against Staphylococcus aureus KCTC 1621 strain assessed as bacterial growth inhibition measured at 18 to 24 hrs in presence of 4.5 mM KCl by microdilution assay; assay type: functional; conditions: time 18-24 hrs
# Staphylococcus aureus [9] = assay: Antibacterial activity against Staphylococcus aureus KCTC 1621 strain assessed as bacterial growth inhibition measured at 18 to 24 hrs in presence of 2.5 mM CaCl2 by microdilution assay; assay type: functional; conditions: time 18-24 hrs
# Escherichia coli [10] = assay: Antibacterial activity against Escherichia coli KCTC 1682 strain assessed as bacterial growth inhibition measured after 6 hrs in presence of trypsin by radial diffusion assay; assay type: functional, organism-based
# Escherichia coli [11] = assay: Antibacterial activity against Escherichia coli KCTC 1682 strain assessed as bacterial growth inhibition measured after 6 hrs in presence of chymotrypsin by radial diffusion assay; assay type: functional, organism-based
# Escherichia coli [12] = assay: Antibacterial activity against Escherichia coli KCTC 1682 strain assessed as bacterial growth inhibition measured after 6 hrs in presence of proteinase K by radial diffusion assay; assay type: functional, organism-based
# Lipopolysaccharide (LPS) [13] = assay: Binding affinity to Escherichia coli O111:B4 lipopolysaccharide assessed as suppression of FTIC labeled LPS binding to mouse RAW264.7 cells at 20 ug/ml pretreated with LPS followed by compound addition by flow cytometer assay (reference value: 67.4%); assay type: cell-based; conditions: dose 20.0 µg/ml
# Cell membrane = assay: Induction of cell membrane depolarization in Staphylococcus aureus assessed as fluorescence intensity at 2 to 16 times MIC by DiSC3(5) dye based fluorescence assay; assay type: subcellular
# Pseudomonas aeruginosa [14] = assay: Synergistic antibacterial activity against multidrug-resistant Pseudomonas aeruginosa CCARM 2095 strain assessed as ciprofloxacin MIC by checkerboard assay; assay type: functional
# Pseudomonas aeruginosa [15] = assay: Synergistic antibacterial activity against multidrug-resistant Pseudomonas aeruginosa CCARM 2095 strain assessed as bacterial growth inhibition in presence of ciprofloxacin by checkerboard assay; assay type: functional
# Pseudomonas aeruginosa [16] = assay: Synergistic antibacterial activity against multidrug-resistant Pseudomonas aeruginosa CCARM 2095 strain assessed as ciprofloxacin fractional inhibitory concentration by checkerboard assay; assay type: functional
# Pseudomonas aeruginosa [17] = assay: Synergistic antibacterial activity against multidrug-resistant Pseudomonas aeruginosa CCARM 2095 strain assessed as oxacillin fractional inhibitory concentration by checkerboard assay; assay type: functional
# Pseudomonas aeruginosa [18] = assay: Synergistic antibacterial activity against multidrug-resistant Pseudomonas aeruginosa CCARM 2095 strain assessed as chloramphenicol fractional inhibitory concentration in presence of chloramphenicol by checkerboard assay; assay type: functional
# Pseudomonas aeruginosa [19] = assay: Synergistic antibacterial activity against multidrug-resistant Pseudomonas aeruginosa CCARM 2095 strain assessed as oxacillin fractional inhibitory concentration in presence of oxacillin by checkerboard assay; assay type: functional
# Pseudomonas aeruginosa [20] = assay: Synergistic antibacterial activity against multidrug-resistant Pseudomonas aeruginosa CCARM 2095 strain assessed as fractional inhibitory concentration index in presence of chloramphenicol by checkerboard assay; assay type: functional
# Pseudomonas aeruginosa [21] = assay: Synergistic antibacterial activity against multidrug-resistant Pseudomonas aeruginosa CCARM 2095 strain assessed as fractional inhibitory concentration index in presence of ciprofloxacin by checkerboard assay; assay type: functional
# Pseudomonas aeruginosa [22] = assay: Synergistic antibacterial activity against multidrug-resistant Pseudomonas aeruginosa CCARM 2095 strain assessed as fractional inhibitory concentration index in presence of oxacillin by checkerboard assay; assay type: functional
# Staphylococcus aureus [23] = assay: Antibacterial activity against methicillin-resistant Staphylococcus aureus CCARM 3089 strain assessed as bacterial growth inhibition by checkerboard assay; assay type: functional
# Staphylococcus aureus [24] = assay: Synergistic antibacterial activity against methicillin-resistant Staphylococcus aureus CCARM 3089 strain assessed as bacterial growth inhibition in presence of ciprofloxacin by checkerboard assay; assay type: functional
# Staphylococcus aureus [25] = assay: Synergistic antibacterial activity against methicillin-resistant Staphylococcus aureus CCARM 3089 strain assessed as bacterial growth inhibition in presence of oxacillin by checkerboard assay; assay type: functional
# Staphylococcus aureus [26] = assay: Synergistic antibacterial activity against methicillin-resistant Staphylococcus aureus CCARM 3089 strain assessed as fractional inhibitory concentration in presence of ciprofloxacin by checkerboard assay; assay type: functional
# Staphylococcus aureus [27] = assay: Synergistic antibacterial activity against multidrug-resistant Staphylococcus aureus CCARM 3089 strain assessed as oxacillin fractional inhibitory concentration by checkerboard assay; assay type: functional
# Staphylococcus aureus [28] = assay: Additive antibacterial activity against multidrug-resistant Staphylococcus aureus CCARM 3089 strain assessed as oxacillin fractional inhibitory concentration by checkerboard assay; assay type: functional
# Staphylococcus aureus [29] = assay: Additive antibacterial activity against multidrug-resistant Staphylococcus aureus CCARM 3089 strain assessed as fractional inhibitory concentration index in presence of oxacillin by checkerboard assay; assay type: functional
# Staphylococcus aureus [30] = assay: Synergistic antibacterial activity against multidrug-resistant Staphylococcus aureus CCARM 3089 strain assessed as fractional inhibitory concentration index in presence of oxacillin by checkerboard assay; assay type: functional
# Pseudomonas aeruginosa [31] = assay: Antibiofilm activity against multidrug-resistant Pseudomonas aeruginosa assessed as inhibition of biofilm formation; assay type: functional
# RAW264.7 = assay: Antiinflammatory activity in LPS-induced mouse RAW264.7 cells assessed as reduction in TNF alpha mRNA expression level at 20 ug/ml measured after 18 hrs by RT-PCR assay relative to control; assay type: functional, cell-based; conditions: dose 20.0 µg/ml
# Lipopolysaccharide (LPS) [32] = assay: Displacement of BODIPY-TR-cadaverine from Escherichia coli O111:B4 lipopolysaccharide assessed as increase in fluorescence at 5 ug/ml by fluorescence based assay relative to control; conditions: dose 5.0 µg/ml
# Lipopolysaccharide (LPS) [33] = assay: Binding affinity to Escherichia coli O111:B4 lipopolysaccharide assessed as suppression of FTIC labeled LPS binding to mouse RAW264.7 cells at 20 ug/ml pretreated LPS with cells for 1 hr followed by compound addition measured after 1 hr by flow cytometer assay (reference value: 48.12%); assay type: cell-based; conditions: dose 20.0 µg/ml
# Pseudomonas aeruginosa [34] = assay: Antibiofilm activity against multidrug-resistant Pseudomonas aeruginosa assessed as biofilm eradication; assay type: functional
structure (smiles),measurement,setting,value
NCCCN(CCCN)c1nc(NCc2ccccc2)nc(N2CC(Cc3ccccc3)N(c3nc(NCc4ccccc4)nc(N(CCCN)CCCN)n3)CC2Cc2ccccc2)n1 (stereo not given),MIC,Escherichia coli [1],5 µM
same,MIC,Pseudomonas aeruginosa [2],10 µM
same,MIC,[3],5 µM
same,MIC,Staphylococcus aureus [4],2.5 µM
same,MHC,Erythrocyte,> 318.5 µM
same,MIC,Escherichia coli [5],5 µM
same,MIC,Escherichia coli [6],5 µM
same,MIC,Escherichia coli [7],5 µM
same,MIC,Staphylococcus aureus [8],2.5 µM
same,MIC,Staphylococcus aureus [9],5 µM
same,Activity,Escherichia coli [10],Active
same,Activity,Escherichia coli [11],Active
same,Activity,Escherichia coli [12],Active
same,Flu intensity,Lipopolysaccharide (LPS) [13],13.2%
same,Activity,Cell membrane,inactive
same,MIC,Pseudomonas aeruginosa [14],64 µg/mL
same,MIC,Pseudomonas aeruginosa [15],4 µg/mL
same,FIC,Pseudomonas aeruginosa [16],0.063
same,FIC,Pseudomonas aeruginosa [17],0.25
same,FIC,Pseudomonas aeruginosa [18],0.25
same,FIC,Pseudomonas aeruginosa [19],0.25
same,fractional inhibitory concentration index (FICI),Pseudomonas aeruginosa [20],0.375
same,fractional inhibitory concentration index (FICI),Pseudomonas aeruginosa [21],0.312
same,fractional inhibitory concentration index (FICI),Pseudomonas aeruginosa [22],0.5
same,MIC,Staphylococcus aureus [23],4 µg/mL
same,MIC,Staphylococcus aureus [24],1 µg/mL
same,MIC,Staphylococcus aureus [25],1 µg/mL
same,FIC,Staphylococcus aureus [26],0.25
same,FIC,Staphylococcus aureus [27],0.25
same,FIC,Staphylococcus aureus [28],0.125
same,fractional inhibitory concentration index (FICI),Staphylococcus aureus [29],0.375
same,fractional inhibitory concentration index (FICI),Staphylococcus aureus [30],0.375
same,MBEC50,Pseudomonas aeruginosa [31],10 µM
same,MBEC90,Pseudomonas aeruginosa [31],39.8 µM
same,MBIC,Pseudomonas aeruginosa [31],10 µM
same,MBIC50,Pseudomonas aeruginosa [31],5 µM
same,Activity,RAW264.7,Active
same,Activity,Lipopolysaccharide (LPS) [32],> 50%
same,Flu intensity,Lipopolysaccharide (LPS) [33],27.4%
same,MBEC50,Pseudomonas aeruginosa [34],10 µM
same,MBEC90,Pseudomonas aeruginosa [34],39.8 µM
N=C(N)NCCNc1nc(NCCNC(=N)N)nc(N2CC(Cc3ccccc3)N(c3nc(NCCNC(=N)N)nc(NCCNC(=N)N)n3)CC2Cc2ccccc2)n1 (stereo not given),MIC,Escherichia coli [1],17.7 µM
same,MIC,Pseudomonas aeruginosa [2],4.8 µM
same,MIC,[3],4.8 µM
same,MIC,Staphylococcus aureus [4],4.8 µM
same,MHC,Erythrocyte,> 309.8 µM
same,MIC,Escherichia coli [5],9.7 µM
same,MIC,Escherichia coli [6],9.7 µM
same,MIC,Escherichia coli [7],19.4 µM
same,MIC,Staphylococcus aureus [8],4.8 µM
same,MIC,Staphylococcus aureus [9],9.6 µM
same,Activity,Escherichia coli [10],Active
same,Activity,Escherichia coli [11],Active
same,Activity,Escherichia coli [12],Active
same,Flu intensity,Lipopolysaccharide (LPS) [13],21.1%
same,Activity,Cell membrane,inactive
same,MIC,Staphylococcus aureus [23],8 µg/mL
same,Activity,RAW264.7,Active
same,Activity,Lipopolysaccharide (LPS) [32],> 50%
same,Flu intensity,Lipopolysaccharide (LPS) [33],40.6%
